These results are taken from patent US20230293599A1, “BACTERIAL COMPOSITIONS WITH ANTI-INFLAMMATORY ACTIVITY” (Universiteit Gent, priority 2020, published 2023).

In the first assay the test system is P. aeruginosa. Description: Biolog Phenotype Microarray PM1-2 growth on carbon sources. It counts as cell-based, Pseudomonas aeruginosa.
Conditions: not given
The method, then:
(§1) Using Phenotype Microarray (PM) panels (Biolog), the influence of 190 carbon sources on the growth of the potential probiotic species R. mucilaginosa, R. dentocariosa, R. gilardii, G. haemolysans, and common respiratory pathogens P. aeruginosa, and S. aureus was determined. PM1 and PM2 panels (Biolog) were inoculated according to the manufacturer's instructions. Growth curves were generated for 35 hours by measuring the absorbance at 590 nm using an EnVision (Perkin Elmer) plate reader.
Turning to `O=C1O[C@@H]([C@H](O)CO)[C@H](O)[C@H]1O` [D-Galactonic-Acid-γ-Lactone], the “AUC of growth curve, P. aeruginosa” value is reported as 397.9.

The same assay, now with this note: 35 hours, absorbance 590 nm, n = 1; cells without values AUC < 50.
Take `C[N+](C)(C)CC(O)CC(=O)[O-]` (racemic) [D,L-Carnitine]: the “AUC of growth curve, P. aeruginosa” value came out at 574.6.
On the same count and under the same terms, the same measure for `NCC(O)c1ccc(O)cc1` (racemic) [D,L-Octopamine]: 1142.2; for `NCCO` [2-Aminoethanol]: 293.7; for `O=C[C@@H](O)[C@H](O[C@@H]1O[C@H](CO)[C@H](O)[C@H](O)[C@H]1O)[C@H](O)CO` [3-0-β-D-Galacto-pyranosyl-D-Arabinose]: 188.8.
Regarding `CC(=O)C(C)O` (centres unmarked) [3-Hydroxy 2-Butanone], the “AUC of growth curve, P. aeruginosa” value amounted to 183.2.
Still for that read-out and setting: the same measure for `O=C(O)c1ccc(O)cc1` [4-Hydroxy Benzoic Acid]: 909.3; for `CC(N)=O` [Acetamide]: 123.0.
On the same count and under the same terms, the same measure for `CC(O)(CC(=O)O)C(=O)O` (centres unmarked) [Citramalic Acid]: 183.9; for `C[C@@H](N)C(=O)O` [D-Alanine]: 668.1.
Still for that read-out and setting: with `N[C@H](CC(=O)O)C(=O)O` [D-Aspartic Acid] the figure was 101.3; with `OC[C@H]1O[C@@H](O[C@H]2[C@H](O)[C@@H](O)[C@H](O)O[C@@H]2CO)[C@H](O)[C@@H](O)[C@@H]1O` [D-Cellobiose], 70.0.
For `OC[C@@H](O)[C@H](O)[C@H](O)[C@@H](O)CO` [Dulcitol], the “AUC of growth curve, P. aeruginosa” value worked out at 72.0.
Same read-out and setting: the same measure for `C=C(CC(=O)O)C(=O)O` [Itaconic Acid]: 790.8; for `NCCc1ccc(O)cc1` [Tyramine]: 684.5.
The same measure, in the same setting: the same measure for `O=C(O)Cc1cccc(O)c1` [m-Hydroxy Phenyl Acetic Acid]: 114.0; for `O=C(O)Cc1ccc(O)cc1` [p_Hydroxy Phenyl Acetic Acid]: 987.9.

For a further assay, the system named is S. aureus.
Assay: not given
The assay is classed as cell-based, Staphylococcus aureus.
Conditions: not given
The method, then: as §1
`OC[C@H]1O[C@@H](O[C@@H]2[C@@H](CO)OC(O)(CO)[C@H]2O)[C@H](O)[C@@H](O)[C@H]1O` (mixture of isomers) [Lactulose]: the “AUC of growth curve, S. aureus” value worked out at 656.2.
The same measure, in the same setting: the same measure for `NCC(O)c1ccc(O)cc1` (racemic) [D,L-Octopamine]: 166.2; for `CC(O)CO` (centres unmarked) [1,2-Propanediol]: 150.0.
Consider `Nc1ncnc2c1ncn2C1CC(O)C(CO)O1` (centres unmarked) [2-Deoxy-Adenosine], for which the “AUC of growth curve, S. aureus” value is recorded as 419.1.
Regarding `O=C[C@@H](O)[C@H](O[C@@H]1O[C@H](CO)[C@H](O)[C@H](O)[C@H]1O)[C@H](O)CO` [3-0-β-D-Galacto-pyranosyl-D-Arabinose], the “AUC of growth curve, S. aureus” value is listed as 446.3.
Still for that read-out and setting: the same measure for `CC(=O)C(C)O` (centres unmarked) [3-Hydroxy 2-Butanone]: 255.6; for `O=C(O)c1ccc(O)cc1` [4-Hydroxy Benzoic Acid]: 140.6; for `CC(N)=O` [Acetamide]: 93.1.
For `N#C[C@H](O[C@@H]1O[C@H](CO[C@@H]2O[C@H](CO)[C@@H](O)[C@H](O)[C@H]2O)[C@@H](O)[C@H](O)[C@H]1O)c1ccccc1` [Amygdalin], the “AUC of growth curve, S. aureus” value was determined as 254.6.
The same measure, in the same setting: with `CCCC(=O)O` [Butyric Acid] the figure was 1011.5; with `CCCCCC(=O)O` [Caproic Acid], 908.9.
On the same count and under the same terms, the same measure for `C/C(=C/C(=O)O)C(=O)O` [Citraconic Acid]: 86.7; for `C[C@@H](N)C(=O)O` [D-Alanine]: 464.9; for `OC[C@@H](O)C(O)[C@H](O)CO` [D-Arabitol]: 832.3.
For the compound `N[C@H](CC(=O)O)C(=O)O` [D-Aspartic Acid], the “AUC of growth curve, S. aureus” value is on record as 242.2.
On the same count and under the same terms, the same measure for `N[C@@H](C(=O)O)[C@@H](O)[C@H](O)[C@H](O)CO` [D-Glucosaminic Acid]: 267.3; for `O=P(O)(O)O[C@H]1O[C@H](CO)[C@@H](O)[C@H](O)[C@H]1O` [D-Glucose-1-Phosphate]: 189.0.
Same read-out and setting: the same measure for `OC[C@H]1O[C@H](OC[C@H]2O[C@H](O[C@]3(CO)O[C@H](CO)[C@@H](O)[C@@H]3O)[C@H](O)[C@@H](O)[C@@H]2O)[C@H](O)[C@@H](O)[C@H]1O` [D-Rafinose]: 282.1; for `O=C1O[C@H](CO)[C@@H](O)[C@H]1O` [D-Ribono-1,4-Lactone]: 100.2.
Same read-out and setting: the same measure for `N[C@H](CO)C(=O)O` [D-Serine]: 76.2; for `C[C@H](O)[C@@H](N)C(=O)O` [D-Threonine]: 87.8.
Take `O=CO` [Formic Acid]: the “AUC of growth curve, S. aureus” value turned out to be 474.0.
In the case of `O=C(O)CO` [Glycolic Acid], the “AUC of growth curve, S. aureus” value is 344.8.
Turning to `C[C@H](N)C(N)=O` [L-Alaninamide], the “AUC of growth curve, S. aureus” value is recorded as 295.4.
Same read-out and setting: the same measure for `OC[C@H](O)C(O)[C@@H](O)CO` [L-Arabitol]: 165.7; for `O=C[C@@H](O)[C@H](O)[C@@H](O)[C@@H](O)CO` [L-Glucose]: 314.7; for `N[C@@H](CO)C(=O)O` [L-Serine]: 558.2.
On to `O=C(O)[C@H](O)[C@@H](O)C(=O)O` [L-Tartaric Acid], for which the “AUC of growth curve, S. aureus” value is recorded as 163.4.
The same measure, in the same setting: the same measure for `C[C@@H](O)[C@H](N)C(=O)O` [L-Threonine]: 754.3; for `OC[C@@H](O)[C@@H](O[C@@H]1O[C@H](CO)[C@H](O)[C@H](O)[C@H]1O)[C@H](O)[C@@H](O)CO` [Lactitol]: 338.8.
The same measure, in the same setting: the same measure for `OC[C@@H](O)[C@@H](O[C@H]1O[C@H](CO)[C@@H](O)[C@H](O)[C@H]1O)[C@H](O)[C@@H](O)CO` [Maltitol]: 783.0; for `O=C(O)[C@H](O)[C@@H](O)[C@H](O)[C@H](O)CO[C@H]1O[C@H](CO)[C@H](O)[C@H](O)[C@H]1O` [Melibionic Acid]: 270.3; for `COC(=O)CCC(=O)O` [Mono Methyl Succinate]: 532.1.
For `CC(=O)N[C@H]1C(O)O[C@H](CO)[C@H](O)[C@@H]1O` (stereo partly drawn) [N-Acetyl-D-Galactosamine], the “AUC of growth curve, S. aureus” value was found to be 59.3.
`CC(=O)N[C@@H](CO)[C@@H](O)[C@H](O)[C@H](O)CO` [N-Acetyl-D-Glucosaminitol]: the “AUC of growth curve, S. aureus” value was found to be 381.9.
The same measure, in the same setting: with `CC(=O)N[C@H]1[C@H]([C@H](O)[C@H](O)CO)OC(O)(C(=O)O)C[C@@H]1O` (some centres unmarked) [N-Acetyl-Neuraminic Acid] the figure was 647.5; with `O=C(O)C(=O)O` [Oxalic Acid], 463.7.
The same measure, in the same setting: with `O=C(O)CCCCCCCCC(=O)O` [Sebacic Acid] the figure was 252.2; with `OC[C@@]12OC[C@@H](O1)[C@@H](O)[C@@H](O)[C@@H]2O` [Sedoheptulosan], 277.8.
Still for that read-out and setting: with `OC[C@H]1O[C@H](OC[C@H]2O[C@H](OC[C@H]3O[C@H](O[C@]4(CO)O[C@H](CO)[C@@H](O)[C@@H]4O)[C@H](O)[C@@H](O)[C@@H]3O)[C@H](O)[C@@H](O)[C@H]2O)[C@H](O)[C@@H](O)[C@H]1O` [Stachyose] the figure was 324.4; with `Cc1cn([C@H]2C[C@H](O)[C@@H](CO)O2)c(=O)[nH]c1=O` [Thymidine], 735.9; with `OC[C@@H](O)[C@H](O)[C@@H](O)CO` [Xylitol], 280.8.
In the case of `O[C@H]1[C@H](O)[C@@H](O)[C@H](O)[C@@H](O)[C@H]1O` [m-inositol], the “AUC of growth curve, S. aureus” value came to 157.9.
As for `OC[C@H]1O[C@@H](O[C@H]2[C@H](O)[C@@H](O)[C@@H](O)O[C@@H]2CO)[C@H](O)[C@@H](O)[C@H]1O` [α-D-Lactose], the “AUC of growth curve, S. aureus” value turned out to be 764.6.
The same measure, in the same setting: with `CCC(O)C(=O)O` (stereo not drawn) [α-Hydroxy-Butyric Acid] the figure was 567.8; with `O=C1CCC(C(=O)O)O1` (stereo not drawn) [α-Hydroxy-Glutaric Acid γ-Lactone], 112.1.
Same read-out and setting: with `CCCC(=O)C(=O)O` [α-Keto-Valeric Acid] the figure was 734.6.
As to `CO[C@H]1O[C@H](CO)[C@@H](O)[C@H](O)[C@H]1O` [α-Methyl-D-Glucoside], the “AUC of growth curve, S. aureus” value is 281.5.
On the same count and under the same terms, with `COC1OC(CO)C(O)C(O)C1O` [α-Methyl-D-Mannoside] the figure was 264.2.
Still for that read-out and setting: with `OC[C@H]1O[C@@H](O)[C@H](O)[C@H](O)[C@@H]1O` [β-D-Allose] the figure was 122.9; with `CC(O)CC(=O)O` (stereo not drawn) [β-Hydroxy Butyric Acid], 326.7.
With `CO[C@@H]1O[C@H](CO)[C@@H](O)[C@H](O)[C@H]1O` [β-Methyl-D-Galactoside], the “AUC of growth curve, S. aureus” value is 358.9.
Same read-out and setting: with `CO[C@@H]1O[C@H](C(=O)O)[C@@H](O)[C@H](O)[C@H]1O` [β-Methyl-D-Glucuronic Acid] the figure was 400.6; with `COC1OCC(O)C(O)C1O` [β-Methyl-D-Xyloside], 166.1; with `O=C(O)CCCO` [γ-Hydroxy Butyric Acid], 343.7.
On the same count and under the same terms, with Tween 20 the figure was 214.4.
Same read-out and setting: the same measure for Tween 80: 468.6.

The same assay, now with this note: 35 hours, absorbance 590 nm, n = 1; cells without values AUC < 50.
Take `CC(=O)O` [Acetic Acid]: the “AUC of growth curve, S. aureus” value came to 898.7.
The same measure, in the same setting: the same measure for `OC[C@H]1O[C@@H](O[C@H]2[C@H](O)[C@@H](O)[C@H](O)O[C@@H]2CO)[C@H](O)[C@@H](O)[C@@H]1O` [D-Cellobiose]: 495.8.
Turning to `NCCCC[C@H](N)C(=O)O` [L-Lysine], the “AUC of growth curve, S. aureus” value stood at 331.6.
The same measure, in the same setting: the same measure for Chondroitin Sulfate C: 199.7; for Gelatin: 52.4.
The same measure, in the same setting: the same measure for Gentiobiose: 471.4.
Still for that read-out and setting: with Glycogen the figure was 197.7; with Laminarin, 192.8.
For Mannan, the “AUC of growth curve, S. aureus” value stood at 154.5.
